Results reported in patent US9440910B2, “Reference markers for fesoterodine fumarate” (ALEMBIC PHARMACEUTICALS LIMITED, priority 2012, dated 2016).
Where a name gives a salt, the structure may show the parent alone.

Columns and labels:
Format in all cases: physicochemical
[1] = Stability Study of Fesoterodine Fumarate at 30° C.+/−2° C. 65%+/−5% RH
Method: (§1) Present inventors carried out the stability study of Fesoterodine Fumarate at different conditions and summarized the table shown below which easily indicate how the impurity at 1.82 RRT is increasingly generated.
Stability Study of Fesoterodine Fumarate at 30° C.+/−2° C. 65%+/−5% RH
(§2) The LC system, used for method development and forced degradation studies and method validation was Waters-Alliance (manufactured by Waters India Ltd) LC system with a photo diode detector. The out put signal was monitored and processed using Empower software system (designed by Waters India) on IBM computer (Digital Equipment Co). • The chromatographic column used was a Waters Aquity BEH C18 100 mm×2.1 mm column with 1.7 μm particles. The mobile phase consists buffer (1.4 g of Disodium hydrogen phosphate in 1000 mL of water pH-8.0 with ortho phosphoric acid), and solvent is acetonitrile. The flow rate of the mobile phase was kept at 0.3 ml/min. beginning with the gradient ratio of mobile phase buffer and solvent 50:50 (v/v), system was continued at the same ratio for 2 minutes. The ratio was changed linearly 30:70(v/v) within 7 minutes and again system was continued at the same ratio for 9 minutes. After 1.5 minutes the initial gradient of 50:50 is for 2.5 minutes to be conditioned far every analysis. The column temperature was maintained at 45° C. and the wavelength was monitored at a wavelength of 220 nm. The injection volume was 3 μL for related substances determination. Acetonitrile was used as diluent during the standard, and test samples preparation.

[2] = Stability Study of Fesoterodine Fumarate at 2-8° C.
Method: as §1
Stability Study of Fesoterodine Fumarate at 2-8° C.
as §2

[3] = Analysis of the stability samples of fesoterodine fumarate; details: after 2-6 months stability at 25° C. and above temperature; not observed during initial analysis
Method: During analysis of the stability samples of fesoterodine fumarate, after 2-6 months stability at 25° C. and above temperature, the unknown impurity (1.82 RRT) detected which was not observed during initial analysis.
as §2, with “The injection volume was 3 μL for related substances determination. Acetonitrile was used as diluent during the standard, and test samples preparation.” left out

[4] = Stability Study of Fesoterodine Fumarate at 25° C.+/−2° C. 60%+/−5% RH
Method: as §1
Stability Study of Fesoterodine Fumarate at 25° C.+/−2° C. 60%+/−5% RH
as §2

[5] = Stability Study of Fesoterodine Fumarate at 40° C.+/−2° C. 75%+/−5% RH
Method: as §1
Stability Study of Fesoterodine Fumarate at 40° C.+/−2° C. 75%+/−5% RH
as §2

With `CC(C)C(=O)Oc1ccc(CO)cc1[C@H](CCN(C(C)C)C(C)C)c1ccccc1` [Fesoterodine Fumarate, [2-[(1R)-3-(Di(propan-2-yl)amino)-1-phenylpropyl]-4-(hydroxymethyl)phenyl]2-methylpropanoate] the “0.29 RRT (Fumaric acid ester)” value ([1]; 1 month) was 0.06%, the “Dihydroxy impurity (active metabolite)” value ([1]; 1 month) was 0.23% and the “Purity of Fesoterodine fumarate” value ([1]; 1 month) was 99.43%. For the same compound, the “0.29 RRT (Fumaric acid ester)” value ([1]; 2 month) was 0.09%, the “1.82 RRT” value ([1]; 2 month) was 0.02% and the “Dihydroxy impurity (active metabolite)” value ([1]; 2 month) was 0.45%. For the same compound, the “Purity of Fesoterodine fumarate” value ([1]; 2 month) was 99.15%, the “0.29 RRT (Fumaric acid ester)” value ([1]; 3 month) was 0.10% and the “1.82 RRT” value ([1]; 3 month) was 0.07%. The “Dihydroxy impurity (active metabolite)” value ([1]; 3 month) was 0.71%, the “Purity of Fesoterodine fumarate” value ([1]; 3 month) was 98.84% and the “0.29 RRT (Fumaric acid ester)” value ([1]; 4 month) was 0.09%. The “1.82 RRT” value ([1]; 4 month) was 0.11%, the “Dihydroxy impurity (active metabolite)” value ([1]; 4 month) was 0.76% and the “Purity of Fesoterodine fumarate” value ([1]; 4 month) was 98.74%. The “0.29 RRT (Fumaric acid ester)” value ([1]; Initial) was 0.03%, the “Dihydroxy impurity (active metabolite)” value ([1]; Initial) was 0.07% and the “Purity of Fesoterodine fumarate” value ([1]; Initial) was 99.69%. The “0.29 RRT (Fumaric acid ester)” value ([2]; 3 month) was 0.04%, the “Dihydroxy impurity (active metabolite)” value ([2]; 3 month) was 0.11% and the “Purity of Fesoterodine fumarate” value ([2]; 3 month) was 99.61%. The “0.29 RRT (Fumaric acid ester)” value ([2]; 6 month) was 0.05%, the “Dihydroxy impurity (active metabolite)” value ([2]; 6 month) was 0.15% and the “Purity of Fesoterodine fumarate” value ([2]; 6 month) was 99.52%. For the same compound, the “0.29 RRT (Fumaric acid ester)” value ([2]; Initial) was 0.03%, the “Dihydroxy impurity (active metabolite)” value ([2]; Initial) was 0.07% and the “Purity of Fesoterodine fumarate” value ([2]; Initial) was 99.69%. For the same compound, the “unknown impurity (1.82 RRT)” value [3] was “detected”, the “0.29 RRT (Fumaric acid ester)” value ([4]; 1 month) was 0.05% and the “Dihydroxy impurity (active metabolite)” value ([4]; 1 month) was 0.15%. For the same compound, the “Purity of Fesoterodine fumarate” value ([4]; 1 month) was 99.52%, the “0.29 RRT (Fumaric acid ester)” value ([4]; 2 month) was 0.07% and the “Dihydroxy impurity (active metabolite)” value ([4]; 2 month) was 0.27%. The “Purity of Fesoterodine fumarate” value ([4]; 2 month) was 99.38%, the “0.29 RRT (Fumaric acid ester)” value ([4]; 3 month) was 0.08% and the “1.82 RRT” value ([4]; 3 month) was 0.01%. The “Dihydroxy impurity (active metabolite)” value ([4]; 3 month) was 0.40%, the “Purity of Fesoterodine fumarate” value ([4]; 3 month) was 99.25% and the “0.29 RRT (Fumaric acid ester)” value ([4]; 4 month) was 0.07%. For the same compound, the “1.82 RRT” value ([4]; 4 month) was 0.02%, the “Dihydroxy impurity (active metabolite)” value ([4]; 4 month) was 0.53% and the “Purity of Fesoterodine fumarate” value ([4]; 4 month) was 99.11%. The “0.29 RRT (Fumaric acid ester)” value ([4]; 6 month) was 0.12%, the “1.82 RRT” value ([4]; 6 month) was 0.11% and the “Dihydroxy impurity (active metabolite)” value ([4]; 6 month) was 1.02. The “Purity of Fesoterodine fumarate” value ([4]; 6 month) was 98.42%, the “0.29 RRT (Fumaric acid ester)” value ([4]; Initial) was 0.03% and the “Dihydroxy impurity (active metabolite)” value ([4]; Initial) was 0.07%. For the same compound, the “Purity of Fesoterodine fumarate” value ([4]; Initial) was 99.69%, the “0.29 RRT 0.29 RRT (Fumaric acid ester)” value ([5]; 1 month) was 0.10% and the “1.82 RRT” value ([5]; 1 month) was 0.06%. For the same compound, the “Dihydroxy impurity (active metabolite)” value ([5]; 1 month) was 0.64%, the “Purity of Fesoterodine fumarate” value ([5]; 1 month) was 98.92% and the “0.29 RRT 0.29 RRT (Fumaric acid ester)” value ([5]; Initial) was 0.03%. For the same compound, the “Dihydroxy impurity (active metabolite)” value ([5]; Initial) was 0.07% and the “Purity of Fesoterodine fumarate” value ([5]; Initial) was 99.69%.
